Laboratory results as given in ChEMBL document CHEMBL1154917, “Flavanone and diphenylpropane glycosides and glycosidic acyl esters from Viscum articulatum” (J Nat Prod, 2010).

Legend:
[1] = test system: Radical scavenging activity; assay: Antioxidant activity assessed as DPPH radical scavenging activity after 30 mins; type: functional
[2] = Cytotoxicity against mouse RAW264.7 cells assessed as cell viability at 1 to 20 uM after 24 hrs by MTT assay relative to control; type: cell-based; conditions: read-out: Activity
RAW264.7 = assay: Antiinflammatory activity against mouse RAW264.7 cells assessed as Inhibition of LPS-induced nitric oxide production after 24 hrs by ELISA; type: functional, cell-based; conditions: RAW264.7, 24 h

Structure (SMILES) | ED50 [1] | viability at 24 h, up to 20 µM [2] | IC50 (RAW264.7)
O=C1C[C@@H](c2ccccc2)Oc2cc(O[C@@H]3O[C@H](CO)[C@@H](O)[C@H](O)[C@H]3O)cc(O)c21 | > 100 µM | 74.5% | 19.2 µM
O=C(/C=C/c1ccccc1)OC[C@@]1(O)CO[C@@H](O[C@@H]2[C@@H](O)[C@H](OCc3ccccc3)O[C@H](CO)[C@H]2O)[C@@H]1O [VISARTISIDE E] | > 100 µM | 88.1% | 39.6 µM
COc1cc([C@@H]2CC(=O)c3c(O)cc(O[C@@H]4O[C@H](CO)[C@@H](O)[C@H](O)[C@H]4O)cc3O2)ccc1O | 100 µM | 88.7% | 23.4 µM
COc1cc(CCCc2c(OC)cc(O)c(OC)c2OC)ccc1O[C@@H]1O[C@H](CO)[C@@H](O)[C@H](O)[C@H]1O | > 100 µM | 77% | 30.2 µM
O=C(/C=C/c1ccccc1)OC[C@H]1O[C@@H](Oc2cc(O)c3c(c2)O[C@H](c2ccc(O)c(O)c2)CC3=O)[C@H](O)[C@@H](O)[C@@H]1O [VISARTISIDE B] | 34.1 µM | 100% | 25.1 µM
Cc1c(C)c2c(c(C)c1O)CC[C@@](C)(CCC[C@H](C)CCC[C@H](C)CCCC(C)C)O2 | 28.4 µM | – | –
O=c1c(O)c(-c2ccc(O)c(O)c2)oc2cc(O)cc(O)c12 [QUERCETIN] | – | 100% | 32.1 µM
O=C(/C=C/c1ccccc1)OC[C@@]1(O)CO[C@@H](O[C@@H]2[C@@H](O)[C@@H](O)O[C@H](CO)[C@H]2O)[C@@H]1O [VISARTISIDE D] | > 100 µM | 80.2% | 32.3 µM
COc1ccc(/C=C/CO[C@@H]2O[C@H](CO)[C@@H](O)[C@H](O[C@@H]3OC[C@](O)(COC(=O)/C=C/c4ccccc4)[C@H]3O)[C@H]2O)cc1O [VISARTISIDE F] | > 100 µM | 85.2% | 27.8 µM
O=C1C[C@@H](c2ccc(O)cc2)Oc2cc(O[C@@H]3O[C@H](CO)[C@@H](O)[C@H](O)[C@H]3O)cc(O)c21 [PRUNIN] | > 100 µM | 100% | 42.6 µM
O=C(/C=C/c1ccccc1)O[C@H]1[C@H](Oc2cc(O)c3c(c2)O[C@H](c2ccc(O)c(O)c2)CC3=O)O[C@H](CO)[C@@H](O)[C@@H]1O [VISARTISIDE A] | 37.6 µM | 100% | 15.6 µM
O=C(/C=C/c1ccccc1)OC[C@@]1(O)CO[C@@H](O[C@H]2[C@H](Oc3cc(O)c4c(c3)O[C@H](c3ccc(O)c(O)c3)CC4=O)O[C@H](CO)[C@@H](O)[C@@H]2O)[C@@H]1O [VISARTISIDE C] | > 100 µM | 99.7% | 14.9 µM
O=C1C[C@@H](c2ccc(O)c(O)c2)Oc2cc(O[C@@H]3O[C@H](CO)[C@@H](O)[C@H](O)[C@H]3O)cc(O)c21 | 63.3 µM | 100% | 41.2 µM
